Measurements as given in ChEMBL document CHEMBL1141038, “Identification of ortho-amino benzamides and nicotinamides as MCHr1 antagonists” (Bioorg Med Chem Lett, 2005).

Key:
[1] = target: T1, Melanin-concentrating hormone receptor 1 (Homo sapiens, UniProt Q99705); test: Inhibitory activity towards melanin-concentrating hormone receptor 1 in IMR32 cells; format: cell-based, IMR-32
[2] = target: T1, Melanin-concentrating hormone receptor 1; test: Inhibitory concentration against MCH1R IMR32 cells in FLIPR-based assay; format: cell-based, IMR-32
[3] = Plasma half life in DIO mice after 10 mg/kg oral dose; format: ADME, organism-based; parameters: dose 10 mg/kg, route oral; conditions: mouse
[4] = Area under the curve in plasma of DIO mice after 10 mg/kg oral dose; format: ADME, organism-based; parameters: dose 10 mg/kg, route oral; conditions: mouse, in vivo
[5] = Brain/plasma in DIO mice after 10 mg/kg oral dose; format: ADME, organism-based; parameters: dose 10 mg/kg, route oral; conditions: mouse, read-out: AUC
[6] = Brain half life in DIO mice after 10 mg/kg oral dose; format: ADME, organism-based; parameters: dose 10 mg/kg, route oral; conditions: mouse
[7] = Brain Cmax in DIO mice after 10 mg/kg oral dose; format: ADME, organism-based; parameters: dose 10 mg/kg, route oral; conditions: mouse
[8] = Plasma Cmax in DIO mice after 10 mg/kg oral dose; format: ADME, organism-based; parameters: dose 10 mg/kg, route oral; conditions: mouse
[9] = Area under the curve in brain of DIO mice after 10 mg/kg oral dose; format: ADME, organism-based; parameters: dose 10 mg/kg, route oral; conditions: mouse, in vivo
[10] = Brain/plasma area under curve in DIO mice after 10 mg/kg oral dose; format: ADME, organism-based; parameters: dose 10 mg/kg, route oral; conditions: mouse, read-out: AUC
[11] = Plasma peak concentration in DIO mice after 10 mg/kg oral dose; format: ADME, organism-based; parameters: dose 10 mg/kg, route oral; conditions: mouse
[12] = Plasma area under curve in DIO mice after 10 mg/kg oral dose; format: ADME, organism-based; parameters: dose 10 mg/kg, route oral; conditions: mouse, in vivo

T1 sequence (Q99705 whole entry): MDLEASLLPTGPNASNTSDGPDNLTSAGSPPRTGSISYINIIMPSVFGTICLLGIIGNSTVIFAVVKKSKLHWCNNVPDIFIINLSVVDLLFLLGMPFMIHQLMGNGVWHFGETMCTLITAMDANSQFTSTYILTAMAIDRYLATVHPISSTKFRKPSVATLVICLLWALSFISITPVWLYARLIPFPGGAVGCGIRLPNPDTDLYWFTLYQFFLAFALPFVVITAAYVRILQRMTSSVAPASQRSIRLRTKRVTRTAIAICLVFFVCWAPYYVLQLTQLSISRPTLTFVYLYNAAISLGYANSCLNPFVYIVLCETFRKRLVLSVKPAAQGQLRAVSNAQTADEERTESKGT

| Structure (SMILES) | IC50 [1] | IC50 [2] | other results |
| --- | --- | --- | --- |
| O=C(NC1CCN(Cc2ccc(Cl)cc2)CC1)c1cc(Cl)cnc1NCc1ccco1 | 60 nM | 1220 nM | – |
| O=C(NC1CCN(Cc2ccc3c(c2)OCO3)CC1)c1cc(Cl)cnc1NCC1CC1 | 20 nM | 20 nM | – |
| COc1ccc(NCc2ncc[nH]2)c(C(=O)NC2CCN(Cc3ccc4c(c3)OCO4)CC2)c1 | 70 nM | 220 nM | – |
| CS(=O)(=O)Nc1ccc(Cl)cc1C(=O)NC1CCN(Cc2ccc3c(c2)OCO3)CC1 | 560 nM | – | – |
| CC(=O)c1ccc(CN2CCC(NC(=O)c3cc(Cl)ccc3NCc3c[nH]cn3)CC2)cc1 | 10 nM | 240 nM | – |
| CC(C)OCCNc1ncc(Cl)cc1C(=O)NC1CCN(Cc2ccc3c(c2)OCO3)CC1 | 10 nM | 20 nM | half-life [3]: 2.3 h; AUC [4]: 677 ng·h/mL; Kp [5]: 0.84; half-life [6]: 1.4 h; Cmax [7]: 276 ng/mL; Cmax [8]: 283 ng/mL; AUC [9]: 570 ng·h/mL |
| O=C(NC1CCN(Cc2ccc3c(c2)OCO3)CC1)c1cc(Cl)cnc1Cl | 2010 nM | – | – |
| O=C(NC1CCN(Cc2ccc3c(c2)OCO3)CC1)c1cc(Cl)ccc1NCc1nccs1 | 2 nM | 16 nM | half-life [3]: 3.8 h; Kp [10]: 0.7; half-life [6]: 7.8 h; Cmax [11]: 2030 ng/mL; Cmax [7]: 814 ng/mL; AUC [12]: 4100 ng·h/mL |
| O=C(NC1CCN(Cc2ccc3ccccc3c2)CC1)c1cc(Cl)ccc1NCc1nccs1 | 6 nM | 40 nM | – |
| O=C(NC1CCN(Cc2ccc3c(c2)OCO3)CC1)c1cc(Cl)cnc1NC[C@H]1CCCO1 | 50 nM | 20 nM | – |
| O=C(NC1CCN(Cc2ccc3c(c2)OCO3)CC1)c1cc(Cl)cnc1NC1CCC1 | 70 nM | 30 nM | – |
| COc1ccc(NS(C)(=O)=O)c(C(=O)NC2CCN(Cc3ccc4c(c3)OCO4)CC2)c1 | 260 nM | – | – |
| COc1ccc(CN2CCC(NC(=O)c3cc(Cl)cnc3NCC(C)C)CC2)cc1F | 160 nM | – | – |
| COc1ccc(NCC2CC2)c(C(=O)NC2CCN(Cc3ccc4c(c3)OCO4)CC2)c1 | 10 nM | 90 nM | – |
| COc1ccc(NCC2CCCCC2)c(C(=O)NC2CCN(Cc3ccc4c(c3)OCO4)CC2)c1 | 50 nM | 1060 nM | – |
| COc1ccc(CNc2ncc(Cl)cc2C(=O)NC2CCN(Cc3ccccc3)CC2)cc1 | 10 nM | 30 nM | – |
| CC(C)OCCNc1ncc(-c2cccs2)cc1C(=O)NC1CCN(Cc2ccc3c(c2)OCO3)CC1 | 190 nM | – | – |
| COc1ccc(NCc2c[nH]cn2)c(C(=O)NC2CCN(Cc3ccc4ccccc4c3)CC2)c1 | 390 nM | 1940 nM | – |
| CC(C)OCCCNc1ncc(Cl)cc1C(=O)NC1CCN(Cc2ccc3c(c2)OCO3)CC1 | 7 nM | 60 nM | – |
| O=C(NC1CCN(Cc2ccc(Cl)cc2)CC1)c1cc(Cl)cnc1NC1CCC1 | 1980 nM | – | – |
| O=C(NC1CCN(Cc2ccc3c(c2)OCO3)CC1)c1cc(Cl)cnc1NCc1cscn1 | 4 nM | 8 nM | – |
| COc1ccc(NS(C)(=O)=O)c(C(=O)NC2CCN(Cc3ccc(Cl)cc3)CC2)c1 | 160 nM | – | – |

| Structure (SMILES) | IC50 [1] | IC50 [2] | other results |
| --- | --- | --- | --- |
| O=C(NC1CCN(Cc2ccc3c(c2)OCO3)CC1)c1cc(Cl)ccc1O | 80 nM | 510 nM | – |
| O=C(Nc1ccc(Cl)cc1C(=O)NC1CCN(Cc2ccc3c(c2)OCO3)CC1)c1ccccn1 | 20 nM | 370 nM | – |
| O=C(NC1CCN(Cc2ccc3c(c2)OCO3)CC1)c1cc(Cl)cnc1NCc1nccs1 | 6 nM | 9 nM | – |
| COc1ccc(NC(=O)NC(C)C)c(C(=O)NC2CCN(Cc3ccc(Cl)cc3)CC2)c1 | 220 nM | – | – |
| Nc1ccc(Cl)cc1C(=O)NC1CCN(Cc2ccc3c(c2)OCO3)CC1 | 9 nM | 200 nM | – |
| CC(C)Nc1ncc(Cl)cc1C(=O)NC1CCN(Cc2ccc3c(c2)CCO3)CC1 | 70 nM | 70 nM | – |
| COc1ccc(NCc2c[nH]cn2)c(C(=O)NC2CCN(Cc3ccc4c(c3)OCO4)CC2)c1 | 20 nM | 50 nM | – |
| CC(C)CNc1ncc(Cl)cc1C(=O)NC1CCN(Cc2ccc3c(c2)OCO3)CC1 | 20 nM | 50 nM | – |
| O=C(NC1CCN(Cc2ccc3c(c2)OCO3)CC1)c1cc(Cl)cnc1NCc1ncc[nH]1 | 20 nM | 70 nM | – |
| COc1ccc(NCc2cncn2C)c(C(=O)NC2CCN(Cc3ccc4c(c3)OCO4)CC2)c1 | 90 nM | 100 nM | – |
| CC(C)Nc1ncc(Cl)cc1C(=O)NC1CCN(Cc2ccc3c(c2)OCO3)CC1 | 20 nM | 30 nM | – |
| COc1ccc(NCC2CCOC2)c(C(=O)NC2CCN(Cc3ccc4c(c3)OCO4)CC2)c1 (stereo not drawn) | 20 nM | 40 nM | – |
| O=C(NC1CCN(Cc2ccc3c(c2)OCO3)CC1)c1ccccc1NCc1c[nH]cn1 | 410 nM | – | – |
| O=C(NC1CCN(Cc2ccc3c(c2)OCO3)CC1)c1cc(Cl)cnc1NCc1cnc[nH]1 | 9 nM | 20 nM | – |
| O=C(NC1CCN(Cc2ccc(Cl)cc2)CC1)c1cc(Cl)cnc1NCC1CC1 | 410 nM | – | – |
| COc1ccc(NCc2c[nH]cn2)c(C(=O)NC2CCN(Cc3ccc4ncccc4c3)CC2)c1 | 70 nM | 100 nM | – |
| COc1ccc(NCc2cncnc2)c(C(=O)NC2CCN(Cc3ccc4c(c3)OCO4)CC2)c1 | 9 nM | 70 nM | – |
| O=C(NC1CCN(Cc2ccc3c(c2)OCO3)CC1)c1cccc(Cl)c1 | 110 nM | – | – |
| CC(C)OCCNc1ncc(-c2ccncc2)cc1C(=O)NC1CCN(Cc2ccc3c(c2)OCO3)CC1 | 140 nM | – | – |
| CNc1ccc(Cl)cc1C(=O)NC1CCN(Cc2ccc3c(c2)OCO3)CC1 | 680 nM | – | – |
| COc1ccc(NCc2ccccn2)c(C(=O)NC2CCN(Cc3ccc4c(c3)OCO4)CC2)c1 | 20 nM | 70 nM | – |
| O=C(NC1CCN(Cc2ccc3ncccc3c2)CC1)c1cc(Cl)ccc1NCc1nccs1 | 20 nM | 30 nM | – |
